The values below come from patent US7064120B2, “Tricyclic pyridyl carboxamides and derivatives thereof tocolytic oxytocin receptor antagonists” (Wyeth, priority 2001, dated 2006).

T1 sequence (P30518 whole entry): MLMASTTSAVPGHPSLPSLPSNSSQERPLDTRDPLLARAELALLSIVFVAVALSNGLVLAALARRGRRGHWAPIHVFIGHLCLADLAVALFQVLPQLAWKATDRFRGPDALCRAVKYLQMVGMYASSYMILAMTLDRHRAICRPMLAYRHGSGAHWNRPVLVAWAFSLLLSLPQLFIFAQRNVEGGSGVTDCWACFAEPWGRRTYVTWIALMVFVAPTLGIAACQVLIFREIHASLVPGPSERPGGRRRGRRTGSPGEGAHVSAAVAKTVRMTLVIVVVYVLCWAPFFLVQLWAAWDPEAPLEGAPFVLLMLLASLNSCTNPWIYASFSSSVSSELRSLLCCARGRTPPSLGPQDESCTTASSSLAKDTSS

One assay concerns the target T1, human vasopressin V2 receptor subtype (Homo sapiens, UniProt P30518).
T1 construct: host or cells: CHO cells, stably transfected (pZeoSV vector)
In words: Vasopressin binding in CHO cell membranes expressing human vasopressin V2 subtype receptors ([3H]arginine vasopressin radioligand binding). The note with it: 100 nM. The method in brief: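 Values are IC50 in nM or percent inhibition at a stated concentration, from scintillation counts after filtration. Binding ran 60 min at room temperature: [3H]arginine vasopressin, human V2-transfected CHO membranes (25 to 50 μg protein/well), pH 7.4 Tris-HCl buffer containing MgCl2, BSA, protease inhibitors.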
As a reminder, the inhibition is the percentage by which the read-out fell short of the control. Read a high inhibition as strong suppression. `Cc1cc(C(=O)N2Cc3ccc(C(=O)NCc4ccncc4)n3Cc3ccccc32)ccc1-c1ccccc1C(F)(F)F` [Example 100, 10-{[2-Methyl-2′-trifluoromethyl-[1,1′-biphenyl]-4-yl]carbonyl}-N-(4-pyridinylmethyl)-10,11-dihydro-5H-pyrrolo[2,1-c][1,4]benzodiazepine-3-carboxamide] showed an inhibition at 0.1 µM of 0%.

In the case of `COc1cc(-c2ccccc2C)c(Cl)cc1C(=O)N1Cc2ccc(C(=O)N3CCN(c4ccccn4)CC3)n2Cc2ccccc21` [Example 81, {10-[(6-Chloro-3-methoxy-2′-methyl-[1,1′-biphenyl]-4-yl)carbonyl]-10,11-dihydro-5H-pyrrolo[2,1-c][1,4]benzodiazepin-3-yl}[4-(2-pyridinyl)-1-piperazinyl]methanone], 0.1 µM produced 5% inhibition.

The compound `COc1ccccc1-c1ccc(C(=O)N2Cc3ccc(C(=O)N4CCN(c5ccccn5)CC4)n3Cc3ccccc32)cc1C` [Example 75, {10-[(2′-Methoxy-2-methyl-[1,1′-biphenyl]-4-yl)carbonyl]-10,11-dihydro-5H-pyrrolo[2,1-c][1,4]benzodiazepin-3-yl}[4-(2-pyridinyl)-1-piperazinyl]methanone] gave an inhibition at 0.1 µM of 9%.

`COc1cc(C(=O)N2Cc3ccc(C(=O)NCc4ccncc4)n3Cc3ccccc32)ccc1-c1cccc2ccccc12` [Example 96, 10-[3-Methoxy-4-(naphthalen-1-yl)benzoyl]-N-(4-pyridinylmethyl)-10,11-dihydro-5H-pyrrolo[2,1-c][1,4]benzodiazepine-3-carboxamide] displayed an inhibition at 0.1 µM of 22%.

Compound `Cc1ccccc1-c1ccc(C(=O)N2Cc3ccc(C(=O)NCc4ccncc4)n3Cc3ccccc32)cc1C` [Example 89, 10-[(2,2′-Dimethyl-[1,1′-biphenyl]-4-yl)carbonyl]-N-(4-pyridinylmethyl)-10,11-dihydro-5H-pyrrolo[2,1-c][1,4]benzodiazepine-3-carboxamide] yielded an inhibition at 0.1 µM of 15%.

As to `COc1ccccc1-c1ccc(C(=O)N2Cc3ccc(C(=O)N(C)CCc4ccccn4)n3Cc3ccccc32)cc1` [Example 67, 10-[(2′-Methoxy-[1,1′-biphenyl]-4-yl)carbonyl]-N-methyl-N-[2-(2-pyridinyl)ethyl]-10,11-dihydro-5H-pyrrolo[2,1-c][1,4]benzodiazepine-3-carboxamide], the inhibition at 0.1 µM came out at 24%.

Regarding `Cc1cc(C(=O)N2Cc3ccc(C(=O)N4CCN(c5ccccn5)CC4)n3Cc3ccccc32)ccc1-c1ccccc1C(F)(F)F` [Example 87, (10-{[2-Methyl-2′-trifluoromethyl-[1,1′-biphenyl]-4-yl]carbonyl}-10,11-dihydro-5H-pyrrolo[2,1-c][1,4]benzodiazepin-3-yl)[4-(2-pyridinyl)-1-piperazinyl]methanone], testing at 0.1 µM gave an inhibition of 4%.

Regarding `COc1cccc(-c2cc(OC)c(C(=O)N3Cc4ccc(C(=O)N5CCN(c6ccccn6)CC5)n4Cc4ccccc43)cc2Cl)c1` [Example 82, {10-[(6-Chloro-3,3′-dimethoxy-[1,1′-biphenyl]-4-yl)carbonyl]-10,11-dihydro-5H-pyrrolo[2,1-c][1,4]benzodiazepin-3-yl}[4-(2-pyridinyl)-1-piperazinyl]methanone], testing at 0.1 µM gave an inhibition of 8%.

`COc1cc(C(=O)N2Cc3ccc(C(=O)N(C)CCc4ccccn4)n3Cc3ccccc32)ccc1-c1ccccc1C` [Example 69, 10-[(2-Methoxy-2′-methyl-[1,1′-biphenyl]-4-yl)carbonyl]-N-methyl-N-[2-(2-pyridinyl)ethyl]-10,11-dihydro-5H-pyrrolo[2,1-c][1,4]benzodiazepine-3-carboxamide] came in with an inhibition at 0.1 µM of 15%.

For `COc1cc(C(=O)N2Cc3ccc(C(=O)N4CCN(c5ccccn5)CC4)n3Cc3ccccc32)ccc1-c1ccccc1C` [Example 80, {10-[(2-Methoxy-2′-methyl-[1,1′-biphenyl]-4-yl)carbonyl]-10,11-dihydro-5H-pyrrolo[2,1-c][1,4]benzodiazepin-3-yl}[4-(2-pyridinyl)-1-piperazinyl]methanone], at 0.1 µM the inhibition was 8%.

Take `Cc1ccccc1-c1ccc(C(=O)N2Cc3ccc(C(=O)N(C)CCc4ccccn4)n3Cc3ccccc32)cc1C` [Example 66, 10-[(2,2′-Dimethyl-[1,1′-biphenyl]-4-yl)carbonyl]-N-methyl-N-[2-(2-pyridinyl)ethyl]-10,11-dihydro-5H-pyrrolo[2,1-c][1,4]benzodiazepine-3-carboxamide]: the inhibition at 0.1 µM turned out to be 24%.

As to `Cc1cc(C(=O)N2Cc3ccc(C(=O)N4CCN(c5ccncc5)CC4)n3Cc3ccccc32)ccc1-c1ccccc1C(F)(F)F` [Example 1], the “V2 % inhibition @ 100 nM” value is on record as 18%.

The assay is the same for the next values; noted with them: value in parentheses.
The IC50 is the concentration that inhibits the measured activity by half. Turning to `Cc1cc(C(=O)N2Cc3ccc(C(=O)N4CCN(Cc5ccc[n+]([O-])c5C)CC4)n3Cc3ccccc32)ccc1-c1ccccc1C(F)(F)F` [Example 3, 3-({4-[(2-Methyl-1-oxidopyridin-3-yl)methyl]piperazin-1-yl}carbonyl)-10-{[2-methyl-2′-trifluoromethyl-[1,1′-biphenyl]-4-yl]carbonyl}-10,11-dihydro-5H-pyrrolo[2,1-c][1,4]benzodiazepine], the IC50 was greater than 3000 nM.

Turning to `COc1cccc(-c2ccc(C(=O)N3Cc4ccc(C(=O)N(C)Cc5cccnc5)n4Cc4ccccc43)cc2C)c1` [Example 102, 10-[(3′-Methoxy-2-methyl-[1,1′-biphenyl]4-yl)carbonyl]-N-methyl-N-(3-pyridinyImethyl)-10,11-dihydro-5H-pyrrolo[2,1-c][1,4]benzodiazepine-3-carboxamide], the IC50 is 534 nM.

In the case of `COc1cccc(-c2ccc(C(=O)N3Cc4ccc(C(=O)N(C)CCc5ccccn5)n4Cc4ccccc43)cc2C)c1` [Example 62, 10-[(3′-Methoxy-2-methyl-[1,1′-biphenyl]-4-yl)carbonyl]-N-methyl-N-[2-(2-pyridinyl)ethyl]-10,11-dihydro-5H-pyrrolo[2,1-c][1,4]benzodiazepine-3-carboxamide], the IC50 worked out at 1490 nM.

Regarding `Cc1cc(C(=O)N2Cc3ccc(C(=O)N4CCN(Cc5ccc[n+]([O-])c5)CC4)n3Cc3ccccc32)ccc1-c1ccccc1C(F)(F)F` [Example 2, 10-{[2-Methyl-2′-trifluoromethyl-[1,1′-biphenyl]-4-yl]carbonyl}-3-({4-[(1-oxidopyridin-3-yl)methyl]piperazin-1-yl}carbonyl)-10,11-dihydro-5H-pyrrolo[2,1-c][1,4]benzodiazepine], the half-inhibitory concentration (IC50) turned out to be 1420 nM.

As for `COc1cc(C(=O)N2Cc3ccc(C(=O)N(C)Cc4cccnc4)n3Cc3ccccc32)ccc1-c1ccccc1C(F)(F)F` [Example 7, 10-{[2-Methoxy-2′-trifluoromethyl-[1,1′-biphenyl]-4-yl]carbonyl}-N-methyl-N-(pyridin-3-ylmethyl)-10,11-dihydro-5H-pyrrolo[2,1-c][1,4]benzodiazepine-3-carboxamide], the IC50 was 407 nM.

Regarding `COc1cc(-c2ccccc2Cl)c(Cl)cc1C(=O)N1Cc2ccc(C(=O)N(C)Cc3cccnc3)n2Cc2ccccc21` [Example 6, 10-[(2′,6-Dichloro-3-methoxy-[1,1′-biphenyl]-4-yl)carbonyl]-N-methyl-N-(pyridin-3-ylmethyl)-10,11-dihydro-5H-pyrrolo[2,1-c][1,4]benzodiazepine-3-carboxamide], the IC50 stood at 309 nM.
